Earlier results, collected in PMC3401542 (Bioorganic & medicinal chemistry, 2012).

Tested on: N1 NAs
Conditions: read-out: inhibition (IC50) of N1 NAs; range over N1 NAs; ref [28]; cited from earlier work

CCC(CC)O[C@@H]1C=C(C(=O)O)C[C@H](N)[C@H]1NC(C)=O [Compound 1c, oseltamivir carboxylate]
IC50: 300 to 800 pM
